Data reported in PMC7794544, “Microbial production of multiple short-chain primary amines via retrobiosynthesis” (Nature Communications, 2021).

Experiments:
VlmD [1] = target: T1, VlmD (Streptomyces viridifaciens, UniProt Q84F32); experiment: HPLC (OPA derivatization) of n-butylamine formed; LC-MS confirmation; assay type: biochemical; settings: 1 mM substrate, 0.1 mM PLP, 150 ug/mL enzyme, 50 mM potassium phosphate pH 7.5, 37 °C, 2 h
T1 construct: N-terminal His6 tag, codon-optimised gene in pET-22b(+), E. coli BL21(DE3), Talon resin
T1 sequence (Q84F32 entry or part of it): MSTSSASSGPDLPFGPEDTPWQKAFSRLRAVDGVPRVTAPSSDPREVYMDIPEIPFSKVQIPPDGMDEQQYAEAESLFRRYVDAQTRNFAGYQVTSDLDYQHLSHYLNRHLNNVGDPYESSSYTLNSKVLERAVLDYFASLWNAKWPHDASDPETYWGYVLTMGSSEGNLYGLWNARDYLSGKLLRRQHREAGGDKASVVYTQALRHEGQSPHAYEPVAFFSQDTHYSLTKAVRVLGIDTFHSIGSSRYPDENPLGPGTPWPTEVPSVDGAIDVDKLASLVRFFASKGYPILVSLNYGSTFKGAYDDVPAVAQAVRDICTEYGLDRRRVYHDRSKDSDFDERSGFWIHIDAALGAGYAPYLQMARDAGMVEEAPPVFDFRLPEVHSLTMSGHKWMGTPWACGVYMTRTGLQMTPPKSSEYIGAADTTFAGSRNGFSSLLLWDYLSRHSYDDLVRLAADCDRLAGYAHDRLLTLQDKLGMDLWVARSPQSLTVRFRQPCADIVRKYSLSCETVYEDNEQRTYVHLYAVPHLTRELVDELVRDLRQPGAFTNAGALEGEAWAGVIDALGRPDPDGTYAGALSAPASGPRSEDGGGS

VlmD [2] = target: T1, VlmD; experiment: HPLC (OPA derivatization) of iso-butylamine formed; LC-MS confirmation; assay type: biochemical; settings: 1 mM substrate, 0.1 mM PLP, 150 ug/mL enzyme, 50 mM potassium phosphate pH 7.5, 37 °C, 2 h

Row | Compound | HPLC (OPA derivatization) of n-butylamine formed; LC-MS confirmation (VlmD [1]) | HPLC (OPA derivatization) of iso-butylamine formed; LC-MS confirmation (VlmD [2])
1 | CCC[C@H](N)C(=O)O [L-norvaline] | VlmD showed relatively high activity toward L-2-aminobutyrate, L-norvaline, L-valine | 
2 | CC(C)[C@H](N)C(=O)O [L-valine] |  | VlmD consistently showed activities toward L-valine, L-leucine, and L-isoleucine as in the previous study
